Patent US8987194B2, “Mutant Nisin ser 29 derivatives and the use thereof” (priority 2009, dated 2015)
Where two headings read alike, the source gives them in different places. Where no end group is shown, it is not given here.

How the values were obtained:
[1] = literature reports; cited from earlier work
[2] = system: L. lactis HP; experiment: Deferred antagonism assay (agar overlay); format: cell-based, Lactococcus lactis spp cremoris; conditions: in Table 2 a listed strain = enhanced
Description: (§1) Deferred antagonism assays were performed by replicating strains on GM17 agar plates and allowing them to grow overnight before overlaying with either GM17/BHI/TSB-YE/MH agar (0.75% w/v agar) seeded with the appropriate indicator strain. For higher throughput screening of the S29X bank, deferred antagonism assays were performed by replicating strains using a 96 pin replicator (Boekel) or spotting 5 μl of a fresh overnight culture on GM17 agar plates and allowing them to grow overnight. Following overnight growth the strains were subjected to UV radiation for 30 minutes prior to overlaying with either GM17/BHI/TS/MH agar (0.75% w/v agar) seeded with the appropriate indicator

[3] = system: gram-negative; conditions: introduction of positively charged residues; cited from earlier work
[4] = system: penicillin-susceptible strain of Strep. pneumoniae; conditions: cited from earlier work
[5] = system: L. lactis HP; experiment: Agarose-based diffusion assay of Nisin A S29 supernatants; format: cell-based, L. lactis spp cremoris; conditions: for Measurement of inhibitory zone, Average a + b + c: average of three replicates; for Measurement of inhibitory zone, L. lactis HP (a): replicate a; for Measurement of inhibitory zone, L. lactis HP (b): replicate b; for Measurement of inhibitory zone, L. lactis HP (c): replicate c
Description: The Nisin A S29 derivatives were retested using this assay (See FIG. 1).
The modified agarose-based assay was performed against 2 indicator strains, L. lactis spp cremoris HP (Table. 6) and Listeria monocytogenes LO28 (Table. 7).

[6] = system: Gram-positive pathogens including Listeria monocytogenes and/or Staphylococcus aureus; conditions: cited from earlier work
[7] = system: pore formation; conditions: cited from earlier work
[8] = system: S. aureus RF122; experiment: Deferred antagonism assay (agar overlay); format: cell-based, Staphylococcus aureus; conditions: in Table 2 a listed strain = enhanced
Description: as §1

Substance | Measurement of inhibitory zone, Average a + b + c [5] [mm] | Measurement of inhibitory zone, L. lactis HP (a) [5] [mm] | Measurement of inhibitory zone, L. lactis HP (b) [5] [mm] | Measurement of inhibitory zone, L. lactis HP (c) [5] [mm] | also measured
I30W: aromatic residue-containing form of Nisin, literature (ITSISLCTPGCKTGALMGCNMKTATCHCSWHVSK; UniProt P13068 24-57, looked up, variant I30W) | – | – | – | – | antimicrobial activity of bioengineered derivative relative to Nisin [1]: reduced antimicrobial activity
Nisin F | – | – | – | – | bioactivity compared to wild type (natural) Nisin variant [2]: Nisin A<Nisin F
M21K (ITSISLCTPGCKTGALMGCNKKTATCHCSIHVSK; UniProt P13068 24-57, looked up, variant M21K) | – | – | – | – | outcome with respect to anti-gram-negative activity [3]: more beneficial outcome
N20F: aromatic residue-containing form of Nisin, literature (ITSISLCTPGCKTGALMGCFMKTATCHCSIHVSK; UniProt P13068 24-57, looked up, variant N20F) | – | – | – | – | antimicrobial activity of bioengineered derivative relative to Nisin [1]: reduced antimicrobial activity
Nisin | – | – | – | – | minimum inhibitory concentration (MIC) ([4]; before serial exposure to Nisin (1 mg/L)): 0.4 µg/mL; minimum inhibitory concentration (MIC) ([4]; stable Nisin-resistant mutants after serial exposure to Nisin (1 mg/L)): 6.4 µg/mL
Nisin A S29H: Nisin A derivative with H at position 29 (ITSISLCTPGCKTGALMGCNMKTATCHCHIHVSK; cysteine pairing not given here; also: lantibiotic nisin-A post-translational modifications, not placed; UniProt P13068 24-57, looked up, variant S29H) | 10.93 | 11.2 | 10.7 | 10.9 | –
K22E (ITSISLCTPGCKTGALMGCNMETATCHCSIHVSK; UniProt P13068 24-57, looked up, variant K22E) | – | – | – | – | antimicrobial activity of bioengineered derivative relative to Nisin [1]: detrimental impact
K22S: Nisin hinge region derivative (Field et al., 2008) (ITSISLCTPGCKTGALMGCNMSTATCHCSIHVSK; cysteine pairing not given here; also: lantibiotic nisin-A post-translational modifications, not placed; UniProt P13068 24-57, looked up, variant K22S) | – | – | – | – | bioactivity and specific activity against Gram-positive pathogens [6]: enhanced bioactivity and specific activity
I1W: aromatic residue-containing form of Nisin, literature (WTSISLCTPGCKTGALMGCNMKTATCHCSIHVSK; UniProt P13068 24-57, looked up, variant I1W) | – | – | – | – | antimicrobial activity of bioengineered derivative relative to Nisin [1]: reduced antimicrobial activity
Nisin A S29L: Nisin A derivative with L at position 29 (ITSISLCTPGCKTGALMGCNMKTATCHCLIHVSK; cysteine pairing not given here; also: lantibiotic nisin-A post-translational modifications, not placed; UniProt P13068 24-57, looked up, variant S29L) | 12.76 | 12.6 | 13.5 | 12.2 | –
Nisin A S29M: Nisin A derivative with M at position 29 (ITSISLCTPGCKTGALMGCNMKTATCHCMIHVSK; cysteine pairing not given here; also: lantibiotic nisin-A post-translational modifications, not placed; UniProt P13068 24-57, looked up, variant S29M) | 13.56 | 13.2 | 14.5 | 13.0 | –
N20P/M21P: Nisin peptide with proline incorporation, literature (ITSISLCTPGCKTGALMGCPPKTATCHCSIHVSK; cysteine pairing not given here; also: lantibiotic nisin-A post-translational modifications, not placed; UniProt P13068 24-57, looked up, variant N20P M21P) | – | – | – | – | pore formation [7]: incapable of pore formation
Nisin Z | – | – | – | – | bioactivity compared to wild type (natural) Nisin variant [8]: Nisin A<Nisin Z
Nisin A S29I: Nisin A derivative with I at position 29 (ITSISLCTPGCKTGALMGCNMKTATCHCIIHVSK; cysteine pairing not given here; also: lantibiotic nisin-A post-translational modifications, not placed; UniProt P13068 24-57, looked up, variant S29I) | 9.9 | 9.2 | 11.3 | 9.2 | –
Nisin A S29F: Nisin A derivative with F at position 29 (ITSISLCTPGCKTGALMGCNMKTATCHCFIHVSK; cysteine pairing not given here; also: lantibiotic nisin-A post-translational modifications, not placed; UniProt P13068 24-57, looked up, variant S29F) | 11.0 | 10.6 | 12.2 | 10.2 | –
Nisin A S29Q: Nisin A derivative with Q at position 29 (ITSISLCTPGCKTGALMGCNMKTATCHCQIHVSK; cysteine pairing not given here; also: lantibiotic nisin-A post-translational modifications, not placed; UniProt P13068 24-57, looked up, variant S29Q) | 15.30 | 15.3 | 15.2 | 15.4 | –
M21E (ITSISLCTPGCKTGALMGCNEKTATCHCSIHVSK; UniProt P13068 24-57, looked up, variant M21E) | – | – | – | – | antimicrobial activity of bioengineered derivative relative to Nisin [1]: detrimental impact
N20P: Nisin hinge region derivative (Field et al., 2008) (ITSISLCTPGCKTGALMGCPMKTATCHCSIHVSK; cysteine pairing not given here; also: lantibiotic nisin-A post-translational modifications, not placed; UniProt P13068 24-57, looked up, variant N20P) | – | – | – | – | bioactivity and specific activity against Gram-positive pathogens [6]: enhanced bioactivity and specific activity
